In PubChem BioAssay (NCI):
“And” between values parts separate entries of the source, which are not always exact repeats. Equal entries are not always repeated.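 A five-concentration, 48-hour dose response in 96-well plates underlies each endpoint, interpolated linearly between surrounding concentrations. GI50 is the concentration that inhibits growth by half. Definition used: TGI = concentration required for complete inhibition of growth.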

Experiments:
Experiment in all cases: NCI anticancer screen, dose series, 48 h
CAKI-1 renal = system: CAKI-1 renal
MALME-3M melanoma = system: MALME-3M melanoma
MOLT-4 leukemia = system: MOLT-4 leukemia
UACC-62 melanoma = system: UACC-62 melanoma
NCI-H23 lung = system: NCI-H23 lung
PC-3 prostate = system: PC-3 prostate
OVCAR-5 ovarian = system: OVCAR-5 ovarian
DU-145 prostate = system: DU-145 prostate
UACC-257 melanoma = system: UACC-257 melanoma
OVCAR-8 ovarian = system: OVCAR-8 ovarian

| Compound | GI50 (CAKI-1 renal) [µM] | TGI (CAKI-1 renal) | GI50 (MALME-3M melanoma) [µM] | TGI (MALME-3M melanoma) | GI50 (MOLT-4 leukemia) [µM] | TGI (MOLT-4 leukemia) | GI50 (UACC-62 melanoma) [µM] | TGI (UACC-62 melanoma) [µM] | GI50 (NCI-H23 lung) [µM] | TGI (NCI-H23 lung) | GI50 (PC-3 prostate) [µM] | TGI (PC-3 prostate) | GI50 (OVCAR-5 ovarian) [µM] | TGI (OVCAR-5 ovarian) | GI50 (DU-145 prostate) [µM] | TGI (DU-145 prostate) | GI50 (UACC-257 melanoma) [µM] | TGI (UACC-257 melanoma) | GI50 (OVCAR-8 ovarian) [µM] | TGI (OVCAR-8 ovarian) |
| --- | --- | --- | --- | --- | --- | --- | --- | --- | --- | --- | --- | --- | --- | --- | --- | --- | --- | --- | --- | --- |
| COc1cc(N=Nc2cc(Cc3ccc(N(C)C)cc3)c(N)cc2N(C)C)c2ncccc2c1 | 0.408 | 2.37 µM | 0.621 | 2.28 µM | 0.185 | 1.22 µM | 0.42 | 1.83 | 0.287 | 1.34 µM | 0.293 | 3.03 µM | 0.801 | 2.66 µM | 0.59 | 2.17 µM | 0.438 | 5.22 µM | 0.387 | 2.19 µM |
| CC(=O)c1cc2c(N)c(C(=O)Nc3cccc4ccccc34)sc2nc1C | – | – | 6.92 | > 50 µM | 2.19 | > 50 µM | 1.12 | > 50 | 2.14 | > 50 µM | 1.75 | > 50 µM | 2.6 | > 50 µM | 1.71 | 36.1 µM | 18 | > 50 µM | 2.14 | > 50 µM |
| N=C(N)c1ccc2oc3ccc(C(=N)N)cc3c(=O)c2c1 | – | > 100 µM | – | > 100 µM | – | > 100 µM | – | > 100 | – | > 100 µM | – | > 100 µM | – | > 100 µM | – | > 100 µM | – | > 100 µM | – | > 100 µM |
| [Br][Pb]([c]1ccccc1)([c]1ccccc1)[c]1ccccc1 | 0.2 | 0.454 µM | 0.183 | 0.39 µM | 0.22 | – | 0.186 | 0.428 | 0.174 | 0.418 µM | 0.225 | 0.515 µM | 0.289 | 1.22 µM | 0.182 | 0.37 µM | 0.193 | 0.43 µM | 0.186 | 0.384 µM |
| COc1cccc(C2CC(=O)Nc3c2c(C)nn3-c2nc3ccccc3[nH]2)c1OC (centres undefined) | 3 | 19.7 µM | 7.97 | 39 µM | 0.0531 | – | 2.52 | 7.86 | 2.53 | 7.54 µM | 4.44 | 60.5 µM | 11.8 | > 100 µM | 8.68 | > 89.4 µM | 5.77 | 39.8 µM | 4.41 | > 100 µM |
| CNC(=O)CCN1CCN(CC/C=C2\c3ccccc3Sc3ccc(Cl)cc32)CC1 | 3.42 | 19.7 µM | 2.59 | 6.16 µM | 6.56 | > 34.1 µM | 1.92 | 3.62 | 14.4 | 32.5 µM | 9.07 | > 45 µM | 22.6 | 41.2 µM | 11.9 | 26.4 µM | 1.53 | 3.06 µM | 14.4 | 32.2 µM |
| CN(C)CCCN1c2ccccc2Sc2ccc(C(F)(F)F)cc21 | 1.54 | 3.15 µM and 24 µM | 1.56 | 3.15 µM and 28.4 µM and 30.1 µM | 1.86 | 4.19 µM and 39.2 µM | 1.46 | – | 1.72 | 4.12 µM and 31.1 µM and 34.4 µM | 1.67 | 4 µM and 28.6 µM | 1.63 | 3.25 µM and 31.6 µM | 1.79 | 3.22 µM and 31.2 µM | 1.62 | 3.49 µM and 29.5 µM and 26.7 µM | 1.73 | 3.33 µM and 30 µM |
| O=[N+]([O-])c1cccc(/C=N/Nc2ccc3ccccc3n2)c1O | – | 16.5 µM | – | 11.3 µM | – | 10.7 µM | – | 20.2 | – | 12.1 µM | – | 56.7 µM | – | 48.3 µM | – | 17.7 µM | – | 7.67 µM | – | > 39 µM |
| Fc1ccccc1CN1COc2c(cc(Cl)c3cccnc23)C1 | – | 9.93 µM | – | 12.2 µM | – | 0.758 µM | – | 1.74 | – | 9.31 µM | – | 10.6 µM | – | 15.3 µM | – | 16.4 µM | – | 8.73 µM | – | 10.7 µM |
| CCCCCCCCCCCCCCCCCc1nc(Cl)nc(Cl)c1Cl | – | > 100 µM | – | > 100 µM | – | > 100 µM | – | > 100 | – | > 100 µM | – | > 100 µM | – | > 100 µM | – | > 100 µM | – | – | – | > 100 µM |
| O=C(Nc1ccn(C2CC(O)C(COC(c3ccccc3)(c3ccccc3)c3ccccc3)O2)c(=O)n1)c1ccccc1 (centres undefined) | – | 18.4 µM | – | 5.89 µM | – | 5.1 µM | – | 20 | – | 3.34 µM | – | 5.35 µM | – | 3.53 µM | – | 17.8 µM | – | 28.3 µM | – | 3.71 µM |
| CC1(C)N=C(N)N=C(N)N1c1ccc(CCCC(=O)Nc2ccc(S(=O)(=O)F)cc2)cc1 | 35 | > 100 µM | 24.2 | > 100 µM | 14.2 | > 100 µM | 2.24 | > 100 | 8.59 | > 100 µM | 0.469 | > 100 µM | 12 | > 100 µM | 6.98 | > 100 µM | 24.8 | > 100 µM | 12.9 | > 100 µM |
| COc1cc2ncn(-c3cc(OCc4ccccc4C(F)(F)F)c(C(N)=O)s3)c2cc1OC | 3.88 | > 25 µM | 14.5 | > 25 µM | 0.13 | > 25 µM | 0.168 | > 8.39 | 0.16 | > 22.2 µM | 0.214 | > 25 µM | 0.178 | > 25 µM | 0.0924 | 0.407 µM | > 5.96 | > 25 µM | 0.168 | > 19.9 µM |
| O=C(/C=C/c1ccc(O)c(O)c1)N1CCN(c2ccc(Cl)cc2)CC1 | 4.71 | 48 µM | 11.1 | 57.5 µM | 3.47 | > 100 µM | 6.36 | 23.3 | 5.21 | 32 µM | 4.67 | 31.1 µM | 13.3 | 85.7 µM | 10.5 | 47.5 µM | 7.72 | 50 µM | 5.46 | 44.4 µM |
| O=[N+]([O-])c1ccccc1N=Nc1c(O)[nH]c2c(Cl)cccc12 | – | 26.3 µM | – | > 35.2 µM | – | > 100 µM | – | > 82.1 | – | > 71.3 µM | – | > 100 µM | – | > 100 µM | – | > 79.2 µM | – | > 42.5 µM | – | 37.4 µM |
